Assay results published in EPA's ToxValDB 9.5 (doi:10.2903/j.efsa.2009.1341).
Converted amounts (≈) assume the structure as drawn.

Key:
Rattus norvegicus = conditions: for LD50: acute
Pimephales promelas = conditions: chronic/long-term; duration: 33 days; growth
Mus musculus = conditions: chronic; duration: 2 years; inhalation; histopathology: nonneoplastic
Canidae = conditions: short-term; duration: 2 weeks; Dog Other
Cyprinodon variegatus = conditions: acute; duration: 96 hours; mortality
Daphnia magna = conditions: chronic/long-term; duration: 21 days; mortality
Apis mellifera = conditions: acute; duration: 48 hours; inhalation; unspecified; mortality

Structure (SMILES): ClC=CCCl [1,3-Dichloropropene]
- LD50 (Rattus norvegicus; inhalation, mortality): 2.7 mg/L
- LD50 (Rattus norvegicus; oral, mortality): 130 mg/kg
- NOAEL (Rattus norvegicus; chronic, duration: 2 years, oral, diet, histopathology: neoplastic): 2.5 mg/kg-day
- NOAEL (Rattus norvegicus; chronic, oral, mortality): 2.5 mg/kg-day
- NOAEL (Rattus norvegicus; reproduction developmental, inhalation, reproduction): < 0.0908 mg/L
- NOAEL (Rattus norvegicus; subchronic, duration: 13 weeks, inhalation, histopathology: nonneoplastic): 9.72 mg/kg-day
- NOAEL (Rattus norvegicus; subchronic, duration: 90 days, oral, mortality): 5 mg/kg-day
- NOEC (Pimephales promelas): 0.032 mg/L
- NOAEL (Mus musculus): 1.1 mg/kg-day
- NOAEL (Canidae): 20 mg/kg-day
- LC50 (Tagia sp.; acute, duration: 14 days, mortality): 55.6 mg/kg
- NOEC (Tagia sp.; chronic/long-term, duration: 56 days, reproduction): 770 mg/kg
- LC50 (Cyprinodon variegatus): 0.87 µg/mL (≈ 7.84 µM)
- NOEC (Daphnia magna): 0.0701 mg/L
- NOEC (Apis mellifera): 115 mg/m3
